{"source": "patent US20180296542A1", "about": "“IMINOSUGARS FOR IMPROVING BONE MINERAL DENSITY IN BONE DISEASE” (Saint Louis University, priority 2015, published 2018)", "key": {"[1]": {"system": "TNSALP-null (Akp2^−/−) mice, in vivo model of bone disease (WT, Het, KO)", "assay": "MicroCT of femur cortical bone (Example 2)", "conditions": "for Normalized bone area-cortical bone volume fraction: FIG. 17", "method": "TNSALP-null (Akp2^−/−) mice served as an in vivo model of bone disease to analyze the effects of the iminosugar, Miglustat.\nMice were obtained, bred and genotyped as described above. Five mice of each genotype (Wild-type (WT), heterozygous (Het), and homozygous (KO)) were included in each treatment group (i.p. administration of PBS, 400 mg/kg Miglustat, and 1200 mg/kg Miglustat as described above). A total of 44 mice were analyzed (1 Akp2^−/− homozygous mouse was omitted in the PBS group). Mice were scanned using microCT and analyzed as described above. Cortical bone in the middle 20% of bone length from trochanter to distal condyles in the femur was scanned and cortical thickness and bone mineral density were obtained. Cortical thickness (Ct.Th, μm) was used as an indication of average thickness of cortical bone. Trabecular bone of the final 625 μm before the femoral growth plate was scanned.\nAs depicted in FIG. 14, Miglustat improved cortical thickness in heterozygous mice at 400 mg/kg. […] Cortical bone area (Ct.Ar, mm^2) was determined by dividing cortical volume by the number of slices X slice thickness. As depicted in FIG. 16, cortical bone area increased in Wild-type (WT) and Heterozygotes (Het) administered 400 mg/kg Miglustat. […] In Homozygotes administered 1,200 mg/kg normalized bone area-cortical bone volume fraction decreased.\nThe attenuation depended on physical density and electron density of bone. As depicted in FIG. 18, high doses of Miglustat improved tissue mineral density in Heterozygotes."}, "[2]": {"system": "TNSALP-null (Akp2^−/−) mice, in vivo model of infantile HPP (wild-type, heterozygous, homozygous)", "assay": "MicroCT bone mineral density of femur cortical bone after one month of Miglustat (Example 1)", "conditions": "for Mean/Density [mg HA/ccm] of TV (Apparent) (BMD), individual mice: femur diaphysis cortical bone, one value per mouse", "method": "-null (Akp2^-/-) mice served as an in vivo model of infantile HPP to analyze the effects of Miglustat as a treatment for HPP through BMD measurements. […] Resembling patients with HPP, elevated substrate concentrations of PEA, PPi, and PLP were found in urine samples from knock-out mice. […] All experiments were conducted with the highest standards of humane animal care at Saint Louis University under an approved IACUC protocol. Mice were genotyped as wild-type, heterozygous, or homozygous through DNA extraction, polymerase chain reaction (PCR), and gel electrophoresis. After DNA was extracted from an ear tissue sample, PCR was used to generate copies of the DNA for gel electrophoresis (2% agarose and Tris-Acetate-EDTA (TAE) buffer). The following primers were used: [NT] ID NO:1), [NT] ID NO:2), [NT] ID NO:3, wild-type allele: 160 bp, mutant allele: 195 bp). At the age of one month, mice were administered 100 μL injections of phosphate-buffered saline (PBS) with 0 mg/kg, 400 mg/kg, or 1200 mg/kg of Miglustat (250 mg/mL) to the peritoneal cavity for gradual diffusion of the drug. Mice were massed each day to adjust Miglustat dosages to body weight. Intraperitoneal injections (IP) continued daily for one month before mice were euthanized with CO2 at the age of two months. Mice were on a Pyridoxine Supplement Diet (“Vitamin B6 Diet”) to prevent seizures. […] (Systems EngineeringTM) was provided every alternating day to prevent dehydration. Urine samples were collected once a week and blood samples were collected from cheek tissue at the beginning and end of treatment. Full-body ventral and side-view x-rays were taken after euthanizing the mice. The left anatomical legs were dissected to obtain the femoral bones. Femurs were then frozen before being placed in 10% formalin the day prior to microCT scanning. Four bones were inserted into a gel cast (2.5% agarose and TAE buffer) at a time and covered with 2.5% agarose and TAE buffer to create gel capsules that were placed in sample tubes (diameter: 11.5 mm, height: 75 mm) for microCT scanning Cortical bone scans (voxel size: 12 μm) were performed at the diaphysis (femoral shaft) using a SCANCO μCT 35 system (SCANCO Medical; Brü[…], Switzerland). MicroCT scans were analyzed using SCANCO Medical microCT software to produce three dimensional reconstructions of the bones and determine bone mineral density (BMD) as the mean/density [mg HA/ccm] of total volume (TV) (Apparent). The total length of each bone was measured as the distance from the greater trochanter to the distal end. Only the middle 20% of each femur was accounted for during cortical bone analysis. Statistical analysis included calculating the average mean/density [mg HA/ccm] of TV (Apparent) and standard error for each treatment group to determine the estimated standard deviation of the statistics. Standard deviation and standard error were not calculated for homozygous mice due to count values below three. Full-body ventral and side x-rays were taken and microCT scans were performed on the femurs of each mouse. The bone mineral densities of the femurs were recorded in units of hydroxyapatite density as the mean/density [mg HA/ccm] of TV (apparent). The average bone mineral densities (average mean/density [mg HA/ccm] of TV (apparent) were then calculated for each treatment group. Statistical analysis, including standard deviation and standard error, was only performed for the wild-types and heterozygotes due to insufficient data for the homozygous mice. A minimum of three mice were required for statistical analysis."}, "[3]": {"conditions": "homozygous mice, Miglustat 400 mg/kg"}}, "note": "Several values for one entry are separate records, joined by “and”; a condition that tells them apart may be missing. Equal values may be shown once. Entries after “also recorded” stand apart in the source; their conditions may differ."}
{"smiles": "CCCCN1C[C@H](O)[C@@H](O)[C@H](O)[C@H]1CO", "note": "[Miglustat, (2R,3R,4R,5S)-1-butyl-2-(hydroxymethyl)piperidine-3,4,5-triol]", "values": [{"measurement": "Total cross sectional area inside the periosteal envelope (Tt.Ar)", "setting": "[1]; Heterozygotes, 400 mg/kg, FIG. 15", "result": "slight increase"}, {"measurement": "Tissue mineral density", "setting": "[1]; Heterozygotes, high doses, FIG. 18", "result": "improved"}, {"measurement": "Normalized bone area-cortical bone volume fraction", "setting": "[1]; Homozygotes, 1,200 mg/kg", "result": "decreased"}, {"measurement": "Cortical bone area (Ct.Ar)", "setting": "[1]; Wild-type (WT) and Heterozygotes (Het), 400 mg/kg, FIG. 16", "result": "increased"}, {"measurement": "Normalized bone area-cortical bone volume fraction", "setting": "[1]; Wild-type and Heterozygotes", "result": "did not have an effect"}, {"measurement": "Cortical thickness (Ct.Th)", "setting": "[1]; heterozygous mice, 400 mg/kg, FIG. 14", "result": "improved"}, {"measurement": "Average BMD with Miglustat dosage versus PBS groups (in words)", "setting": "[2]; across genotypes, except wild-type mice at 1200 mg/kg, one month of treatment, 1200 mg/kg", "result": "higher average BMDs; also recorded: BMD increased with Miglustat dosage; also recorded: higher average BMD values"}, {"measurement": "Average BMD versus PBS heterozygotes (in words)", "setting": "[2]; heterozygous mice, Miglustat 400 mg/kg", "result": "slight improvement; also recorded: higher average BMD value"}, {"measurement": "Mean/Density [mg HA/ccm] of TV (Apparent) (BMD), individual mice", "setting": "[2]; heterozygous mice, Miglustat 400 mg/kg IP daily for one month", "result": "983.17 mg HA/ccm and 937.07 mg HA/ccm and 968.62 mg HA/ccm"}, {"measurement": "Average Mean/Density [mg HA/ccm] of TV (Apparent) (average BMD)", "setting": "[2]; heterozygous mice, Miglustat 400 mg/kg, n=3, ± standard error", "result": "962.95±13.61 mg HA/ccm and 962.95 mg HA/ccm"}, {"measurement": "Average BMD versus PBS heterozygotes and PBS wild-types (in words)", "setting": "[2]; heterozygous mice, Miglustat 1200 mg/kg", "result": "even greater improvement; also recorded: match or even surpass; also recorded: matched and surpassed"}, {"measurement": "Mean/Density [mg HA/ccm] of TV (Apparent) (BMD), individual mice", "setting": "[2]; heterozygous mice, Miglustat 1200 mg/kg IP daily for one month", "result": "980.88 mg HA/ccm and 984.82 mg HA/ccm and 979.78 mg HA/ccm and 1006.65 mg HA/ccm"}, {"measurement": "Average Mean/Density [mg HA/ccm] of TV (Apparent) (average BMD)", "setting": "[2]; heterozygous mice, Miglustat 1200 mg/kg, n=4, ± standard error", "result": "988.03±6.30 mg HA/ccm and 988.03 mg HA/ccm"}, {"measurement": "Differences in mineralization in microCT scans between treatments", "setting": "[2]; heterozygous mice, PBS vs 400 vs 1200 mg/kg Miglustat", "result": "not discernable"}, {"measurement": "Mean/Density [mg HA/ccm] of TV (Apparent) (BMD), individual mice", "setting": "[2]; homozygous (Akp2^−/−) mice, Miglustat 400 mg/kg IP daily for one month", "result": "881.08 mg HA/ccm and 1054.98 mg HA/ccm"}, {"measurement": "Average Mean/Density [mg HA/ccm] of TV (Apparent) (average BMD)", "setting": "[2]; homozygous (Akp2^−/−) mice, Miglustat 400 mg/kg, n=2", "result": 968.03, "unit": "mg HA/ccm"}, {"measurement": "Average BMD versus knockouts on PBS (in words)", "setting": "[2]; [3]", "result": "substantial difference; also recorded: higher average BMD"}, {"measurement": "Cortical bone mineralization at the diaphysis in microCT scans", "setting": "[2]; [3]", "result": "improper cortical bone mineralization"}, {"measurement": "Average BMD versus other treatment groups (in words)", "setting": "[2]; wild-type mice, Miglustat 400 mg/kg", "result": "greater; also recorded: increased; also recorded: highest average BMD"}, {"measurement": "Mean/Density [mg HA/ccm] of TV (Apparent) (BMD), individual mice", "setting": "[2]; wild-type mice, Miglustat 400 mg/kg IP daily for one month", "result": "1000.00 mg HA/ccm and 990.58 mg HA/ccm and 991.31 mg HA/ccm and 1004.30 mg HA/ccm and 995.88 mg HA/ccm"}, {"measurement": "Average Mean/Density [mg HA/ccm] of TV (Apparent) (average BMD)", "setting": "[2]; wild-type mice, Miglustat 400 mg/kg, n=5, ± standard error", "result": "996.41±2.60 mg HA/ccm and 996.41 mg HA/ccm"}, {"measurement": "Average BMD versus PBS wild-type group (in words)", "setting": "[2]; wild-type mice, Miglustat 1200 mg/kg", "result": "no change"}, {"measurement": "Mean/Density [mg HA/ccm] of TV (Apparent) (BMD), individual mice", "setting": "[2]; wild-type mice, Miglustat 1200 mg/kg IP daily for one month", "result": "973.20 mg HA/ccm and 985.09 mg HA/ccm and 969.63 mg HA/ccm and 967.00 mg HA/ccm"}, {"measurement": "Average Mean/Density [mg HA/ccm] of TV (Apparent) (average BMD)", "setting": "[2]; wild-type mice, Miglustat 1200 mg/kg, n=4, ± standard error", "result": "974.48±3.63 mg HA/ccm and 974.48 mg HA/ccm"}]}
